Values of other authors, collected in patent EP0495131B1, “AGENT FOR PREVENTING AND TREATING HEPATITIS” (priority 1990, dated 1992).

Tested on: hepatitis, especially B-type hepatitis
Conditions: percentage of patients in which antigen is converted into negative and antibody into positive; anti-virus agents for hepatitis

Structure (SMILES) | rate of the seroconversion (SC rate)
Nc1ncnc2c1ncn2[C@@H]1O[C@H](CO)[C@@H](O)[C@@H]1O [Ara-A, adenine arabinoside] | 0-30%
Nc1nc2c(ncn2COCCO)c(=O)[nH]1 [acyclovir] | about 27%
